{
  "source": "patent US9888679B2",
  "about": "“Protection of progenitor cells and regulation of their differentiation” (Proteobioactives Pty Ltd, priority 2007, dated 2018)",
  "key": {"[1]": {"tested_on": "Primary human progenitor cells", "assay": "Differentiation in osteogenic media: mineralisation assay", "format": "cell-based", "settings": "for differentiation into osteoblasts/osteocytes: osteogenic media, particularly at 1 and 10 micrograms PPS/mL, FIG. 7", "experimental": "FIG. 7. The Effects of Pentosan Polysulfate (PPS) on Human progenitor cell Differentiation: Mineralisation Assay. Primary human progenitor cells were cultured in 96 wells plates in non-osteoinductive growth media (media control) or in osteoinductive conditions (alphaMEM supplemented with 10% FCS, 100 microM L-ascorbate-2-phosphate, dexamethasone 10^−7 M and 3 mM inorganic phosphate) in the presence of PPS at the indicated concentrations. On day 28, the concentration of acid solubilisd calcium per well was determined using the Cresolphthalein Complexone method. (A) The concentration of acid solubilised calcium per microg of DNA/well was determined following the assessment of the total amount of DNA per well using a fluorogenic DNA stain (Hoeshst 33258). […] (B) Phase-contrast photomicrographs of mineralised cultures at ×20 magnification.\nThe conditions necessary for the induction of human progenitor cells to develop mineralised bone matrix in vitro have been previously described (Gronthos S, A C Zannettino, S J Hay, S Shi, S E Graves, A Kortesidis and P J Simmons. (2003). Molecular and cellular characterisation of highly purified stromal stem cells derived from human bone marrow. J Cell Sci 116:1827-1835). The osteoinductive media consists of alpha-MEM media supplemented with 2% (v/v) FCS, 1.8 mM KH2PO4, 10-7 dexamethasone sodium phosphate, 50 IU/ml penicillin, 50 μg/mL streptomycin, 1 mM Sodium Pyruvate, 100 μM L-Ascorbic acid 2-phosphate, 2 mM L-glutamine and 10 mM HEPES buffer. […]\nTotal mineral content per well in the above cultures was assessed by measuring the calcium levels per total DNA in each well. […] The acid-solubilzed mineral 23 was transferred to a new 96-well plate and reacted with o-cresol-phthalein-complexone (Thermal Electron Corporation, USA) to form a purple dye that was measured at 570 nm using an EL 808 Ultra Microplate Reader. […] Absolute absorbance was determined by measuring against a series of DNA standards at 350 nm by LS55 Luminescence Spectrometer (Perkin Elmer)."}, "human progenitor cells": {"tested_on": "human progenitor cells", "assay": "IL-4/IFN-gamma induced apoptosis, Annexin V staining", "format": "cell-based", "experimental": "FIG. 6. The Effects of Pentosan Polysulfate (PPS) on Human progenitor cells treated with apoptotic agents. Human progenitor cells were plated in serum-free media supplemented with PPS at the indicated concentrations. Progenitor cell apoptosis was induced by the addition of a combination of 30 ng/ml IL-4 plus 30,000 U/ml IFN-gamma. Following 5 days culture, cells were harvested by trypsinisation and viabilities assessed by Annexin V staining.\nHuman progenitor cells were plated in serum-free media supplemented with PPS at concentrations of 0, 1, 2, 5 and 10 micrograms/mL. Progenitor cell apoptosis was induced by the addition of a combination of 30 ng/ml IL-4 30,000 U/ml IFN gamma. Following 5 days culture, cells were harvested by trypsinisation and viabilities assessed by Annexin V staining as previously described (Kortesidis A, A Zannettino, S Isenmann, S Shi, T Lapidot and S Gronthos. (2005). Stromal-derived factor-1 promotes the growth, survival, and development of human bone marrow stromal stem cells. Blood 105:3793-3801).\nThe experiment was undertaken in a 96 well plate containing 50,000 progenitor cells/well."}, "Smad 4": {"tested_on": "Smad 4", "assay": "RT-PCR gene expression, 2 day monolayer ATDC5 cultures", "format": "cell-based, murine", "settings": "ATDC5 cells; concentrations shown to stimulate PG synthesis; FIG. 26", "source_text": "(§1) FIG. 26. RT-PCR detection of gene expression of Runx2 and the transduction proteins, Smad 2 and Smad 4 and the housekeeping gene NADPH expressed by Murine ATDC5 progenitor cells cultured in the presence and absence of rhNC4 (Batch PBA-1209P) and PPS for 2 days in monolayer cultures.\n(§2) Total RNA was isolated from Progenitor cells according to the manufacturer's instructions for the Aurum total RNA mini kit (Bio-Rad, USA). The RNA was reverse transcribed with RevertAid™ H Minus First Stand cDNA Synthesis Kit (Fermentas, USA). PCR products were transferred to an agarose gel, and visualized by ethidium bromide staining, and integrated densities calculated using Scion image analysis software, normalized to the house-keeping gene Glyceraldehydes-3-phosphate dehydrogenase (GAPDH) to permit semi-quantitative comparisons in mRNA levels. (L. Marchuk, P. Sciore, C. Reno, C. B. Frank, D. A. Hart. Postmortem stability of total RNA isolated from rabbit ligament, tendon and cartilage, Biochim Biophys Acta. 1379 (1998) 171-177. R. Boykiw, P. Sciore, C. Reno, L. Marchuk, C. B. Frank, D. A. Hart. Altered levels of extracellular matrix molecule mRNA in healing rabbit ligaments, Matrix Biol. 17 (1998) 371-378.)"}, "Smad 2": {"tested_on": "Smad 2", "assay": "RT-PCR gene expression, 2 day monolayer ATDC5 cultures", "format": "cell-based, murine", "settings": "ATDC5 cells; concentrations shown to stimulate PG synthesis; FIG. 26", "source_text": "as §1, §2"}},
  "data": [
    {"substance": "pentosan polysulfate [PPS]", "values": [
      {"measurement": "differentiation into osteoblasts/osteocytes", "setting": "[1]", "result": "suppressed differentiation into osteocytes"},
      {"measurement": "differentiation into osteoblasts/osteocytes", "setting": "[1]; listed as polysulfated polysaccharides", "result": "suppress differentiation of progenitor cells to this cell phenotype"},
      {"measurement": "calcified deposits in cultures (photomicrographs)", "setting": "[1]; osteoinductive conditions, FIG. 7B", "result": "no calcified deposits are present"},
      {"measurement": "PPS concentration with best results on apoptosis", "setting": "human progenitor cells; FIG. 6", "result": 10, "unit": "µg/mL"},
      {"measurement": "reduction in IFN-gamma/IL-4-induced apoptosis (Annexin V positive cells)", "setting": "human progenitor cells; PPS in excess 1 ug/ml, 5 days culture, FIG. 6", "result": "two-fold reduction"},
      {"measurement": "cell apoptosis", "setting": "human progenitor cells; all concentrations of PPS (1, 2, 5, 10 micrograms/mL)", "result": "reduced"},
      {"measurement": "reduction of apoptosis", "setting": "human progenitor cells; concentrations above 1 microgram/mL, incubated with IL-4 and IFN-gamma, FIG. 6", "result": "about 50%"},
      {"measurement": "expression of Smad 4", "setting": "Smad 4", "result": "up regulation"},
      {"measurement": "expression of Smad 2", "setting": "Smad 2", "result": "up regulation"}
    ]}
  ]
}
